Reference: patent US10155021B2, “Antimicrobial 4-oxoquinolizines” (Emergent Product Development Gaithersburg Inc., priority 2011, dated 2018)
≈ marks a conversion by molar mass, not a printed value. Read-outs that look alike come from different tables or passages of the source.

Tests used:
[1] = system: Acinetobacter spp. H064200250; experiment: MIC determination for Acinetobacter strains (Example 3); format: cell-based, Acinetobacter sp.; conditions: LEV R, CIP R, MRP R, IMP I
A. baumannii A 401 = experiment: as above; format: cell-based; conditions: A401, LEV R, CIP R, AMK R, TET R
[2] = system: resistant strains of A. baumannii and one strain of Acinetobacter sp.; experiment: MIC without and with sub-inhibitory polymyxin B, whole panel / MIC ranges (Example 4; also strains not listed separately); format: cell-based; conditions: for MIC +0.06 μg/ml PB: +0.06 μg/ml polymyxin B; for MIC without PB/MIC + PB: ratio; for MIC +[…] PB: +[…] polymyxin B; for MIC: Acinetobacter baumannii
A. baumannii ATCC 19606 = experiment: MIC without and with sub-inhibitory polymyxin B (Example 4); format: cell-based, Acinetobacter baumannii; conditions: for MIC +0.06 μg/ml PB / MIC without PB/MIC + PB: A. baumannii ATCC 19606; for MIC +0.06 μg/ml PB: +0.06 μg/ml polymyxin B; for MIC without PB/MIC + PB: ratio, PB 0.06 μg/ml; for MIC: Acinetobacter baumannii, ATCC19606, A. baumannii ATCC 19606, without polymyxin B
A. baumannii J2 = experiment: as above; format: cell-based, Acinetobacter baumannii; conditions: for MIC +[…] PB / MIC without PB/MIC + PB: A. baumannii J2; for MIC +[…] PB: +[…] polymyxin B; for MIC without PB/MIC + PB: ratio; for MIC: Acinetobacter baumannii, J2, A. baumannii J2, without polymyxin B
[3] = system: Acinetobacter sp. (H064200250); experiment: as above; format: cell-based; conditions: for MIC +[…] PB: +[…] polymyxin B; for MIC without PB/MIC + PB: ratio; for MIC: Acinetobacter, without polymyxin B, read-out: MIC without PB
A. baumannii A329 = experiment: as above; format: cell-based, Acinetobacter baumannii; conditions: for MIC: Acinetobacter baumannii, A329, A. baumannii A329, without polymyxin B, read-out: MIC without PB
A. baumannii A401 = experiment: as above; format: cell-based, Acinetobacter baumannii; conditions: A baumannii A 401, +0.06 μg/ml polymyxin B
[4] = 1st experiment, read-out: MIC without PB
[5] = 2nd experiment, visual reading, read-out: MIC without PB
[6] = Acinetobacter spp. H064200250 (OXA51), 2nd experiment, visual reading
[7] = Acinetobacter spp. H064200250, 1st experiment

C[C@@H](O)[C@H]1C(=O)N2C(C(=O)O)=C(SCCN=CN)C[C@H]12 [Imipenem, reference compound]
MIC [1]: 16 µg/mL (≈ 53.4 µM)
MIC (A. baumannii A 401): 32 µg/mL (≈ 107 µM)
Range ratios MIC without PB/MIC with PB 01-10-2008 n = 8 ([2]; 1st experiment, 8 strains): 1-64
Range ratios MIC without PB/MIC with PB 14-10-2008 n = 11 ([2]; 2nd experiment, 11 strains): 1-256
MIC +0.06 μg/ml PB ([2]; A. baumannii A14, 1st experiment): 1 µg/mL
MIC +0.06 μg/ml PB ([2]; A. baumannii A14, 2nd experiment, visual reading): 1 µg/mL
MIC without PB/MIC + PB ([2]; A. baumannii A14, PB 0.06 μg/ml, 1st experiment): 1
MIC without PB/MIC + PB ([2]; A. baumannii A14, PB 0.06 μg/ml, 2nd experiment): 1
MIC +[…] PB ([2]; A. baumannii NCTC 13301, 1st experiment): 16 µg/mL (≈ 53.4 µM)
MIC +[…] PB ([2]; A. baumannii NCTC 13301, 2nd experiment, visual reading): 1 µg/mL (≈ 3.34 µM)
MIC without PB/MIC + PB ([2]; A. baumannii NCTC 13301, PB […], 1st experiment): 8
MIC without PB/MIC + PB ([2]; A. baumannii NCTC 13301, PB […], 2nd experiment): 128
MIC ([2]; A. baumannii A14, without polymyxin B, 1st experiment, read-out: MIC without PB): 1 µg/mL (≈ 3.34 µM)
MIC ([2]; A. baumannii A14, without polymyxin B, 2nd experiment, visual reading, read-out: MIC without PB): 1 µg/mL (≈ 3.34 µM)
MIC ([2]; NCTC13301, A. baumannii NCTC 13301, without polymyxin B, 1st experiment, read-out: MIC without PB): 128 µg/mL (≈ 428 µM)
MIC ([2]; NCTC13301, A. baumannii NCTC 13301, without polymyxin B, 2nd experiment, visual reading, read-out: MIC without PB): 128 µg/mL (≈ 428 µM)
MIC ([2]; read-out: MIC range without PB 01-10-2008 n = 8, without polymyxin B, 1st experiment, 8 strains): 1 to 128 µg/mL (≈ 3.34 to 428 µM)
MIC range with PB ([…] MIC) 01-10-2008 n = 8 ([2]; with polymyxin B […] MIC, 1st experiment, 8 strains): <0.125-16 μg/ml
MIC +0.06 μg/ml PB (A. baumannii ATCC 19606; 1st experiment): 1 µg/mL
MIC +0.06 μg/ml PB (A. baumannii ATCC 19606; 2nd experiment, visual reading): 1 µg/mL
MIC without PB/MIC + PB (A. baumannii ATCC 19606; 1st experiment): 2
MIC without PB/MIC + PB (A. baumannii ATCC 19606; 2nd experiment): 1
MIC (A. baumannii ATCC 19606; [4]): 2 µg/mL (≈ 6.68 µM)
MIC (A. baumannii ATCC 19606; 2nd experiment, second reading marked *, mark not explained, read-out: MIC without PB, value in parentheses marked *): 4 µg/mL (≈ 13.4 µM)
MIC (A. baumannii ATCC 19606; [5]): 1 µg/mL (≈ 3.34 µM)
MIC +[…] PB (A. baumannii J2; 1st experiment): ≤0.125 µg/mL
MIC +[…] PB (A. baumannii J2; 2nd experiment, visual reading): ≤0.125 µg/mL
MIC without PB/MIC + PB (A. baumannii J2; 1st experiment): ≥32
MIC without PB/MIC + PB (A. baumannii J2; 2nd experiment): ≥64
MIC (A. baumannii J2; [4]): 4 µg/mL (≈ 13.4 µM)
MIC (A. baumannii J2; 2nd experiment, MIC read with alamar blue, read-out: MIC without PB, read with alamar blue): 4 µg/mL (≈ 13.4 µM)
MIC (A. baumannii J2; [5]): 8 µg/mL (≈ 26.7 µM)
MIC +[…] PB [3, 6]: 0.5 µg/mL (≈ 1.67 µM)
MIC without PB/MIC + PB ([3]; Acinetobacter spp. H064200250 (OXA51), 2nd experiment): 16
MIC +[…] PB [3, 7]: 0.5 µg/mL (≈ 1.67 µM)
MIC without PB/MIC + PB [3, 7]: 32
MIC [3, 6]: 8 µg/mL (≈ 26.7 µM)
MIC [3, 7]: 16 µg/mL (≈ 53.4 µM)
MIC +0.06 μg/ml PB (A. baumannii A329; A. baumannii A329, +0.06 μg/ml polymyxin B, 2nd experiment, visual reading): 128 µg/mL
MIC without PB/MIC + PB (A. baumannii A329; A. baumannii A329, ratio, PB 0.06 μg/ml, 2nd experiment): ≥1
MIC (A. baumannii A329; 1st experiment): 128 µg/mL (≈ 428 µM)
MIC (A. baumannii A329; 2nd experiment, visual reading): > 128 µg/mL
MIC +0.06 μg/ml PB (A. baumannii A401; 1st experiment): 8 µg/mL
MIC +0.06 μg/ml PB (A. baumannii A401; 2nd experiment, visual reading): 4 µg/mL
